Strand notation (5' to 3'): a small letter for the sugar, then the base; units joined by * are phosphorothioate-linked, units joined directly phosphodiester-linked; [ ] holds rarer units or linkages, { } end groups; capitals alone tell only the bases. k = constrained ethyl (cEt); [5mC] = 5-methylcytosine; d = 2'-deoxy (DNA)
System: Yap1 mRNA
Assay: Antisense inhibition of human Yap1 in A-431 cells by cEt gapmers, single dose (Example 2, RTS4814)
Format: cell-based
Summary of the method: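 Yap1 mRNA levels, by real-time RT-PCR (RTS4814) and corrected for total RNA via RIBOGREEN, are given as percent of untreated cells. Gapmers (16-mer, cEt wings, phosphorothioate, 5-methylC) were delivered without transfection at 2,000 nM to A-431 cells for about 48 hours.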

[1] = Yap1 mRNA as percent of untreated control, A-431 cells, 3-10-3 cEt gapmers targeting SEQ ID NO.: 1, and 2, Table 30
[2] = Table 18, A-431 cells, 5,000 cells per well, free uptake, 2,000 nM modified oligonucleotide, approx. 48 hours, RTS4814, normalized to RIBOGREEN, Yap1 mRNA as percent of untreated control
[3] = Table 23, Yap1 mRNA as percent of untreated control, 3-10-3 cEt gapmers, single dose
[4] = Table 19, A-431 cells, 5,000 cells per well, free uptake, 2,000 nM modified oligonucleotide, approx. 48 hours, RTS4814, normalized to RIBOGREEN, Yap1 mRNA as percent of untreated control
[5] = A-431 cells, 5,000 cells per well, free uptake, 2,000 nM modified oligonucleotide, approx. 48 hours, RTS4814, normalized to RIBOGREEN, Table 4, asterisk (*) = targets amplicon region of primer probe set
[6] = Table 21, Yap1 mRNA, percent of untreated control, 3-10-3 cEt gapmers targeting SEQ ID NO.: 1 and 2
[7] = Table 33, Yap1 mRNA, percent of untreated control, 3-10-3 cEt gapmers targeting SEQ ID NO.: 1, and 2
[8] = Table 20, Yap1 mRNA, percent of untreated control, 3-10-3 cEt gapmers targeting SEQ ID NO.: 1 and 2
[9] = Table 25, Yap1 mRNA as percent of untreated control, 3-10-3 cEt gapmers targeting SEQ ID NO.: 1, and 2
[10] = Table 6, A-431 cells, 5,000 cells per well, free uptake, 2,000 nM modified oligonucleotide, approx. 48 hours, RTS4814, normalized to RIBOGREEN, Yap1 mRNA relative to untreated control cells
[11] = Table 32, Yap1 mRNA, percent of untreated control, 3-10-3 cEt gapmers targeting SEQ ID NO.: 1, and 2

1074384 (kT*kT*k[5mC]*dA*dA*dG*dG*dT*dA*dG*dT*d[5mC]*dT*kG*kG*kG; antisense) [compound 1074384]
YAP1 (% UTC) [1]: 35 % UTC

1075332 (kA*kG*k[5mC]*dG*dG*dG*dT*dT*dT*dA*dG*dA*dA*kT*kG*k[5mC]; antisense) [Compound 1075332]
YAP1 (% UTC) [2]: 66 % UTC

1075497 (kA*kT*kT*dA*dT*dA*dT*dA*dA*dT*dG*d[5mC]*dA*kG*kG*k[5mC]; antisense) [Compound 1075497]
YAP1 (% UTC) [3]: 14 % UTC

1074704 (antisense k[5mC]*kA*k[5mC]*dG*dG*dT*dG*dT*dA*dA*dG*dA*d[5mC]*kA*kA*kG) [compound 1074704]
YAP1 (% UTC) [1]: 16 % UTC

1076233 (k[5mC]*k[5mC]*kA*dA*dT*dA*dA*dA*dG*d[5mC]*dA*dA*dG*kT*kA*kG; antisense) [Compound 1076233]
YAP1 (% UTC) [3]: 13 % UTC

1074725 (antisense kG*kT*kA*dT*dA*dA*d[5mC]*dT*dG*dG*dG*d[5mC]*dA*kA*kA*kT) [Compound 1074725]
YAP1 (% UTC) [4]: 17 % UTC

1075364 (k[5mC]*kG*kA*dA*dA*dA*dT*dA*dG*dT*dT*d[5mC]*dT*k[5mC]*kA*kA; antisense) [Compound 1075364]
YAP1 (% UTC) [2]: 59 % UTC

716460 (kT*kA*kT*dT*d[5mC]*dT*dA*dA*dA*dT*dG*d[5mC]*dA*kT*kA*k[5mC]; antisense) [Compound 716460]
YAP1 (% UTC) [5]: 86 % UTC

1075271 (antisense kG*kA*kT*dG*dT*dG*dA*dT*d[5mC]*dT*dG*dT*dG*kA*kG*kA) [Compound 1075271]
YAP1 (% UTC) [6]: 11 % UTC

1075335 (k[5mC]*kT*kT*dA*dA*dT*dA*dA*dT*d[5mC]*dT*dA*d[5mC]*k[5mC]*kA*kG; antisense) [Compound 1075335]
YAP1 (% UTC) [6]: 30 % UTC

1074730 (antisense kT*kA*kT*d[5mC]*dA*d[5mC]*dA*dG*dT*dA*d[5mC]*dT*dG*k[5mC]*kT*kA) [Compound 1074730]
YAP1 (% UTC) (Table 24, Yap1 mRNA as percent of untreated control, 3-10-3 cEt gapmers targeting SEQ ID NO.: 1, and 2): 46 % UTC

1075187 (kG*k[5mC]*k[5mC]*d[5mC]*dA*dA*dG*dG*dA*dG*dG*dA*dA*kA*kT*k[5mC]; antisense) [compound 1075187]
YAP1 (% UTC) [7]: 77 % UTC

1075731 (k[5mC]*k[5mC]*k[5mC]*d[5mC]*dA*dA*dT*dA*dT*dT*dA*dT*d[5mC]*kT*kA*k[5mC]; antisense) [compound 1075731]
YAP1 (% UTC) [7]: 40 % UTC

1075014 (antisense kG*kG*kA*dG*dA*dA*dA*dT*dA*dA*dA*dA*dG*kT*k[5mC]*kG) [Compound 1075014]
YAP1 (% UTC) [8]: 46 % UTC

1074949 (antisense kG*kT*kG*dA*dT*dT*dT*dT*dT*dT*d[5mC]*dT*dG*kA*kG*kT) [Compound 1074949]
YAP1 (% UTC) [4]: 31 % UTC

1075147 (antisense kT*kA*kT*dA*dA*dA*d[5mC]*d[5mC]*dT*dT*dA*d[5mC]*dA*kG*kT*kA) [Compound 1075147]
YAP1 (% UTC) [9]: 57 % UTC

1075268 (antisense kT*kA*kT*dT*dA*dA*d[5mC]*d[5mC]*dT*dG*dG*dA*dG*kA*kG*kT) [Compound 1075268]
YAP1 (% UTC) [2]: 47 % UTC

716507 (antisense kA*k[5mC]*kT*dA*d[5mC]*dT*d[5mC]*dT*dA*dA*dA*dA*d[5mC]*kT*k[5mC]*k[5mC]) [Compound 716507]
YAP1 (% UTC) [10]: 53 % UTC

1076009 (kT*kA*kG*d[5mC]*dG*dA*dA*dA*dA*dT*dA*dA*d[5mC]*kA*kT*kT; antisense) [Compound 1076009]
YAP1 (% UTC) [3]: 69 % UTC

1076273 (kA*kA*kA*d[5mC]*dA*dA*dA*dA*dT*dG*dG*d[5mC]*dG*kA*kA*kT; antisense) [compound 1076273]
YAP1 (% UTC) (Yap1 mRNA as percent of untreated control, A-431 cells, 3-10-3 cEt gapmers targeting SEQ ID NO.: 1, and 2, Table 31): 84 % UTC

716526 (antisense kT*k[5mC]*kA*dA*dA*dG*d[5mC]*dA*d[5mC]*dT*dG*dT*dG*k[5mC]*k[5mC]*kA) [Compound 716526]
YAP1 (% UTC) [5]: 88 % UTC

1076395 (kG*kT*kA*dA*d[5mC]*dT*dA*dA*d[5mC]*d[5mC]*dT*dA*dA*kG*kG*kA; antisense) [Compound 1076395]
YAP1 (% UTC) [9]: 34 % UTC

716463 (kG*kA*k[5mC]*dT*dG*d[5mC]*d[5mC]*d[5mC]*d[5mC]*dA*dA*d[5mC]*d[5mC]*kA*kG*kA; antisense) [Compound 716463]
YAP1 (% UTC) [5]: 64 % UTC

1075238 (antisense k[5mC]*kT*kT*dA*dA*dA*d[5mC]*dA*dG*dG*dT*dG*d[5mC]*k[5mC]*kA*kA) [Compound 1075238]
YAP1 (% UTC) [8]: 24 % UTC

1074601 (antisense k[5mC]*k[5mC]*kA*dG*d[5mC]*dT*dA*dA*d[5mC]*dT*d[5mC]*dA*dA*kA*kA*k[5mC]) [Compound 1074601]
YAP1 (% UTC) [3]: 24 % UTC

1074214 (antisense kT*k[5mC]*k[5mC]*dG*dG*d[5mC]*dG*dG*d[5mC]*dT*dT*dG*dA*kA*kG*kA) [Compound 1074214]
YAP1 (% UTC) [8]: 89 % UTC

716571 (kG*k[5mC]*kT*dG*dA*dA*dG*d[5mC]*d[5mC]*dG*dA*dG*dT*kT*k[5mC]*kA) [Compound 716571]
YAP1 (% UTC) (Table 7 (gapmers targeting SEQ ID NO: 3 and 4), A-431 cells, free uptake, 2,000 nM, approximately 48 hours, RTS4814): 91 % UTC

1075239 (antisense kT*k[5mC]*kT*dT*dA*dA*dA*d[5mC]*dA*dG*dG*dT*dG*k[5mC]*k[5mC]*kA) [Compound 1075239]
YAP1 (% UTC) [6]: 27 % UTC

1076402 (antisense k[5mC]*kG*kT*dA*dA*dT*dT*dA*dT*dT*dT*dT*dT*kG*k[5mC]*kT) [compound 1076402]
YAP1 (% UTC) [11]: 38 % UTC

716480 (kG*k[5mC]*kA*dA*dG*dT*d[5mC]*dT*dT*dG*dT*dA*dA*kG*kT*kA; antisense) [Compound 716480]
YAP1 (% UTC) [10]: 18 % UTC

1075590 (k[5mC]*kA*kT*d[5mC]*dA*dA*dA*dA*dT*dT*dA*dG*d[5mC]*kA*kG*kG; antisense) [Compound 1075590]
YAP1 (% UTC) [8]: 50 % UTC

1075369 (kG*kG*kA*dG*dA*dA*dT*dA*dA*dG*d[5mC]*dA*dA*kT*k[5mC]*kA; antisense) [Compound 1075369]
YAP1 (% UTC) [3]: 31 % UTC

1074898 (antisense kA*kA*k[5mC]*dT*dT*dT*dT*dG*dG*dG*d[5mC]*dA*dA*kA*kG*kT) [compound 1074898]
YAP1 (% UTC) [11]: 101 % UTC

1075506 (k[5mC]*kA*kT*dA*dA*dA*dG*dG*dT*dG*dA*d[5mC]*dA*kG*k[5mC]*k[5mC]; antisense) [compound 1075506]
YAP1 (% UTC) [11]: 66 % UTC

1075154 (k[5mC]*kA*kT*dT*dA*dT*dA*dA*dT*dG*dG*dG*dA*kG*kG*kA; antisense) [compound 1075154]
YAP1 (% UTC) [11]: 13 % UTC

1075623 (k[5mC]*kA*kT*dA*dA*dT*d[5mC]*dA*dA*dA*dA*dT*dG*kG*kG*k[5mC]; antisense) [Compound 1075623]
YAP1 (% UTC) [6]: 48 % UTC

1076132 (k[5mC]*kA*kT*d[5mC]*dA*dA*dT*dA*d[5mC]*dT*dG*dA*d[5mC]*kA*kT*k[5mC]; antisense) [Compound 1076132]
YAP1 (% UTC) [2]: 28 % UTC

— patent US11214803B2, “Modulators of YAP1 expression” (Ionis Pharmaceuticals, Inc., priority 2019, dated 2022)
